Laboratory results from US11230543B2, “Biaryl monobactam compounds and methods of use thereof for the treatment of bacterial infections” (priority 2015, dated 2022).
Counter-ions that a name gives are not always drawn.

Tests used:
[1] = tested on: Klebsiella pneumoniae expressing KPC-1 (CL6569); assay: Antibiotic activity: growth inhibitory concentration (OD600), Klebsiella pneumoniae CL6569; type: cell-based; conditions: lowest concentration inhibiting 95% of bacterial growth; in the presence of β lactamase inhibitor Relebactam 4 μg/mL; 35±2° C. for 22 hours; tested range 100 μM to 0.098 μM
Procedure: (§1) Antibiotic Activity: Determination of Growth Inhibitory Concentration
(§2) The concentrations of compounds required to inhibit the growth of various strains of bacteria were determined in an assay that assessed bacterial growth by measuring optical density at 600 nm (OD600). The bacterial strains tested included the clinical strains Escherichia coli expressing NDM-1 (CLB30016), Klebsiella pneumoniae expressing KPC-1 (CL6569), Acinetobacter baumannii expressing TEM-1, AmpC, and Oxa-24/40 (CL6188) and Pseudomonas aeruginosa expressing AmpC (CL5701). All compounds were tested in the presence of a β lactamase inhibitor (BLi, Relebactam) in 384-well microplates. The clinical strains were stored as frozen single use stocks, thawed and diluted into 1.1× cation-adjusted Mueller-Hinton II broth to achieve approximately 2×10^5 CFU/mL. Test compounds were dissolved in DMSO and diluted 1:50 in the assay, resulting in a final concentration range of 100 μM to 0.098 μM. On the day of the assay, 1 μL of test compound was added to the plate followed by 4 μL of 50 μg/mL BLi in MOPS buffer and 45 μL of diluted bacteria. Plates were centrifuged at 1000 rpm for 30 seconds, shaken at approximately 800 rpm for 1 minute, and incubated at 35±2° C. for 22 hours. The concentration of BLi used in the assay was 4 μg/mL. At the end of the incubation, absorbance at 600 nm was determined using a spectrophotometer. Inhibition was quantitated by identifying the lowest concentration of test compound that was required to inhibit 95% of the growth of the bacteria. The results for Examples 1-126 are reported in Table I, expressed as the concentration of compound that inhibited 95% of bacterial growth (Minimum Inhibitory Threshold Concentration; MITC95).

[2] = tested on: Pseudomonas aeruginosa expressing AmpC (CL5701); assay: Antibiotic activity: growth inhibitory concentration (OD600), Pseudomonas aeruginosa CL5701; type: cell-based; conditions: lowest concentration inhibiting 95% of bacterial growth; in the presence of β lactamase inhibitor Relebactam 4 μg/mL; 35±2° C. for 22 hours; tested range 100 μM to 0.098 μM
Procedure: as §1, §2

Row | SMILES | KP_CL6569 MITC95 [1] [µM] | PA_CL5701 MITC95 [2] [µM]
1 | C[C@@H]1[C@H](NC(=O)/C(=N\O[C@@H](COc2ccc(-c3cn(CCCN)[n+](C)c3)cc2)C(=O)O)c2csc(N)n2)C(=O)N1S(=O)(=O)[O-] [Example 9, (2R,3S)-3-((Z)-2-(((S)-2-(4-(1-(3-aminopropyl)-2-methyl-1H-pyrazol-2-ium-4-yl)phenoxy)-1-carboxyethoxy)imino)-2-(2-aminothiazol-4-yl)acetamido)-2-methyl-4-oxoazetidine-1-sulfonate] | 0.3906 | 6.25
2 | CC1(C)[C@H](NC(=O)/C(=N\O[C@@H](COc2ccc(-c3cn(CCCN)cn3)cc2)C(=O)O)c2csc(N)n2)C(=O)N1OS(=O)(=O)O [Example 10, (S)-3-(4-(1-(3-Aminopropyl)-1H-imidazol-4-yl)phenoxy)-2-((((Z)-1-(2-aminothiazol-4-yl)-2-(((S)-2,2-dimethyl-4-oxo-1-(sulfooxy)azetidin-3-yl)amino)-2-oxoethylidene)amino)oxy)propanoic acid] | 0.3906 | 6.25
3 | C[n+]1cc(-c2ccc(OC[C@H](O/N=C(\C(=O)N[C@@H]3C(=O)N(OS(=O)(=O)[O-])C3(C)C)c3nc(N)sc3Cl)C(=O)O)cc2)cn1CCCN [Example 11, (S)-3-((Z)-2-(2-Amino-5-chlorothiazol-4-yl)-2-(((S)-2-(4-(1-(3-aminopropyl)-2-methyl-1H-pyrazol-2-ium-4-yl)phenoxy)-1-carboxyethoxy)imino)acetamido)-2,2-dimethyl-4-oxoazetidin-1-yl sulfate] | 0.7813 | 3.125
4 | C[n+]1cc(-c2ccc(OC[C@H](O/N=C(\C(=O)N[C@@H]3C(=O)N(OS(=O)(=O)[O-])C3(C)C)c3nsc(N)n3)C(=O)O)cc2)cn1CCCN [Example 12, (S)-3-((Z)-2-(5-Amino-1,2,4-thiadiazol-3-yl)-2-(((S)-2-(4-(1-(3-aminopropyl)-2-methyl-1H-pyrazol-2-ium-4-yl)phenoxy)-1-carboxyethoxy)imino)acetamido)-2,2-dimethyl-4-oxoazetidin-1-yl sulfate] | 0.3906 | 3.125
5 | CC1(C)[C@H](NC(=O)/C(=N\O[C@@H](COc2ccc(-c3cnn(CCCN)c3)nc2)C(=O)O)c2csc(N)n2)C(=O)N1OS(=O)(=O)O.O=C(O)C(F)(F)F [Example 13, 3-(4-(5-((S)-2-((((Z)-1-(2-aminothiazol-4-yl)-2-(((S)-2,2-dimethyl-4-oxo-1-(sulfooxy)azetidin-3-yl)amino)-2-oxo-ethylidene)amino)oxy)-2-carboxyethoxy)pyridin-2-yl)-1H-pyrazol-1-yl)propan-1-aminium 2,2,2-trifluoroacetate] | 0.7813 | 12.5
6 | CC1(C)[C@H](NC(=O)/C(=N\O[C@@H](COc2ccc(-c3cnn(CC[N+]4(C)CCOCC4)c3)cc2)C(=O)O)c2csc(N)n2)C(=O)N1OS(=O)(=O)O.O=C([O-])C(F)(F)F [Example 14, 4-(2-(4-(4-((S)-2-((((Z)-1-(2-aminothiazol-4-yl)-2-(((S)-2,2-dimethyl-4-oxo-1-(sulfooxy)azetidin-3-yl)amino)-2-oxoethylidene)amino)oxy)-2-carboxyethoxy)phenyl)-1H-pyrazol-1-yl)ethyl)-4-methylmorpholin-4-ium 2,2,2-trifluoroacetate] | 0.7813 | 12.5
7 | C[n+]1cc(-c2ccc(OC[C@H](O/N=C(\C(=O)N[C@@H]3C(=O)N(OS(=O)(=O)O)C3(C)C)c3csc(N)n3)C(=O)O)c(F)c2)cn1CCCN [Example 15, 1-(3-aminopropyl)-4-(4-((S)-2-((((Z)-1-(2-aminothiazol-4-yl)-2-(((S)-2,2-dimethyl-4-oxo-1-(sulfooxy)azetidin-3-yl)amino)-2-oxo-ethylidene)amino)oxy)-2-carboxyethoxy)-3-fluorophenyl)-2-methyl-1H-pyrazol-2-ium, TFA salt (1:1)] | 0.3906 | 6.25
8 | C[n+]1cc(-c2ccc(OC[C@H](O/N=C(\C(=O)N[C@@H]3C(=O)N(OS(=O)(=O)[O-])C3(C)C)c3csc(N)n3)C(=O)O)cc2)cn1CC1CNC1 [Example 16, (S)-3-((Z)-2-(2-aminothiazol-4-yl)-2-(((S)-2-(4-(1-(azetidin-3-ylmethyl)-2-methyl-1H-pyrazol-2-ium-4-yl)phenoxy)-1-carboxy-ethoxy)imino)acetamido)-2,2-dimethyl-4-oxoazetidin-1-yl sulfate] | 0.3906 | 3.125
9 | C[n+]1cc(-c2ccc(OC[C@H](O/N=C(\C(=O)N[C@@H]3C(=O)N(OS(=O)(=O)[O-])C3(C)C)c3csc(N)n3)C(=O)O)cc2)cn1CCN [Example 17, (S)-3-((Z)-2-(((S)-2-(4-(1-(2-aminoethyl)-2-methyl-1H-pyrazol-2-ium-4-yl)phenoxy)-1-carboxyethoxy)imino)-2-(2-aminothiazol-4-yl)acetamido)-2,2-dimethyl-4-oxoazetidin-1-yl sulfate] | 0.3906 | 6.25
10 | C[n+]1c(-c2ccc(OC[C@H](O/N=C(\C(=O)N[C@@H]3C(=O)N(OS(=O)(=O)O)C3(C)C)c3csc(N)n3)C(=O)O)cc2)ccn1CCCN.O=C([O-])C(F)(F)F [Example 18, 1-(3-aminopropyl)-3-(4-((S)-2-((((Z)-1-(2-aminothiazol-4-yl)-2-(((S)-2,2-dimethyl-4-oxo-1-(sulfooxy)azetidin-3-yl)amino)-2-oxo-ethylidene)amino)oxy)-2-carboxyethoxy)phenyl)-2-methyl-1H-pyrazol-2-ium 2,2,2-trifluoroacetate] | 0.3906 | 6.25
11 | Cc1cn(CCCN)[n+](C)c1-c1ccc(OC[C@H](O/N=C(\C(=O)N[C@@H]2C(=O)N(OS(=O)(=O)O)C2(C)C)c2csc(N)n2)C(=O)O)cc1.O=C([O-])C(F)(F)F [Example 19, 1-(3-aminopropyl)-3-(4-((S)-2-((((Z)-1-(2-aminothiazol-4-yl)-2-(((S)-2,2-dimethyl-4-oxo-1-(sulfooxy)azetidin-3-yl)amino)-2-oxo-ethylidene)amino)oxy)-2-carboxyethoxy)phenyl)-2,4-dimethyl-1H-pyrazol-2-ium 2,2,2-trifluoroacetate] | 0.7813 | 12.5
12 | Cc1c(-c2ccc(OC[C@H](O/N=C(\C(=O)N[C@@H]3C(=O)N(OS(=O)(=O)O)C3(C)C)c3csc(N)n3)C(=O)O)cc2)c(C)[n+](C)n1CCCN.O=C([O-])C(F)(F)F [Example 20, 1-(3-aminopropyl)-4-(4-((S)-2-((((Z)-1-(2-aminothiazol-4-yl)-2-(((S)-2,2-dimethyl-4-oxo-1-(sulfooxy)azetidin-3-yl)amino)-2-oxo-ethylidene)amino)oxy)-2-carboxyethoxy)phenyl)-2,3,5-trimethyl-1H-pyrazol-2-ium 2,2,2-trifluoroacetate] | 0.3906 | 6.25
13 | Cc1cc(-c2ccc(OC[C@H](O/N=C(\C(=O)N[C@@H]3C(=O)N(OS(=O)(=O)O)C3(C)C)c3csc(N)n3)C(=O)O)cc2)n(CCCN)[n+]1C.O=C([O-])C(F)(F)F [Example 21, 1-(3-aminopropyl)-5-(4-((S)-2-((((Z)-1-(2-aminothiazol-4-yl)-2-(((S)-2,2-dimethyl-4-oxo-1-(sulfooxy)azetidin-3-yl)amino)-2-oxo-ethylidene)amino)oxy)-2-carboxyethoxy)phenyl)-2,3-dimethyl-1H-pyrazol-2-ium 2,2,2-trifluoroacetate] | 0.3906 | 12.5
14 | Cc1cc(-c2ccc(OC[C@H](O/N=C(\C(=O)N[C@@H]3C(=O)N(OS(=O)(=O)O)C3(C)C)c3csc(N)n3)C(=O)O)cc2)[n+](C)n1CCCN.O=C([O-])C(F)(F)F [Example 22, 1-(3-aminopropyl)-3-(4-((S)-2-((((Z)-1-(2-aminothiazol-4-yl)-2-(((S)-2,2-dimethyl-4-oxo-1-(sulfooxy)azetidin-3-yl)amino)-2-oxo-ethylidene)amino)oxy)-2-carboxyethoxy)phenyl)-2,5-dimethyl-1H-pyrazol-2-ium 2,2,2-trifluoroacetate] | 0.7813 | 25
15 | C[n+]1cc(-c2ccc(OC[C@H](O/N=C(\C(=O)N[C@@H]3C(=O)N(OS(=O)(=O)O)C3(C)C)c3csc(N)n3)C(=O)O)cc2F)cn1CCCN [Example 24, (S)-3-((Z)-2-(((S)-2-(4-(1-(3-aminopropyl)-2-methyl-1H-pyrazol-2-ium-4-yl)-3-fluorophenoxy)-1-carboxyethoxy)imino)-2-(2-aminothiazol-4-yl)acetamido)-2,2-dimethyl-4-oxoazetidin-1-yl sulfate] | 0.3906 | 3.125
